Tests used:
[1] = system: patient-specific primary human glioblastoma cells (pGBMs); assay: Pharmacodynamic analysis of GAA and GA, AlamarBlue (IMC50); format: cell-based; conditions: for inhibition of the metabolic activity of pGBMs: FIG. 14A
Method: To validate the results obtained from primary screening, these compounds were purchased from independent suppliers (FIG. 13). Pharmacodynamic analysis was conducted by determining the concentrations that decreased the metabolic activity of pGBMs to 50% control levels (IMC50). […] For further analysis, pGBMs were collected at five days following single-dose in vitro application of the respective compound.
(§1) Considering the cellular and genetic diversity that characterizes GBM, we next investigated GAA's pharmacological effect in 17 pGBM samples derived from 11 patients (see Table 2 for list of samples and patient data). […] Next, pair-wise comparison of GAA-pharmacodynamics was performed in pGBMs to stratify results according to key clinical constellations (Bredel et al., 2011; Glas et al., 2010; Simpson et al., 2006; Weller et al., 2010). Glioblastoma samples derived from (i) the tumor center vs. periphery region of the same patient, (ii) primary vs. recurrent disease of the same patient, (iii) MGMT-promoter hypermethylated vs. unmethylated tissue, (iv) p53 wild type vs. p53 mutated samples, as well as from (v) NFKBIA wild type vs. NFKBIA deleted genotypes.
For pharmacodynamic analysis, 5×10^4 cells were plated in 12-well-plates at 24 hours before application of compound-series. […] Experiments were performed in triplicates. IMC50 was defined as the compound concentration that reduced the metabolic activity by 50% compared to control conditions and determined via data analysis in GraphPad Prism 4.0.

[2] = system: self-renewing, multipotent cells among pGBMs; assay: Neurosphere assay after GA or GAA pre-treatment; format: cell-based, human; conditions: single pre-treatment, vital cells collected at day 5
From the text: In a next series of experiments we aimed to determine the influence of the compounds on the activity of tumor-initiating cells (TICs). TICs embody a severe functional consequence of intra-tumor heterogeneity as, at least in human glioblastoma, it is anticipated that they are represented by a small subpopulation of stem-like, i.e. self-renewing and multipotent cells (e.g. Sties and Rowitch, 2008; Zhou et al., 2009). In previous work, we established their frequencies in the range from 0.25 to 1% among culture passage 5-10 pGBMs (see Glas et al., 2010). To estimate potential compound-induced alterations to the pool of self-renewing and multipotent cells in pGBMs, the neurosphere assay (NSA) was applied as recently described (Scheffler et al., 2005; Glas et al., 2010). Heterogeneous pGBM samples (#'s 046, 078, 106) were exposed to the compounds, vital cells were collected at day 5, and processed under non-adherent conditions in the NSA (neurosphere assay, see methods).
The neurosphere assay was performed to estimate the frequency of self-renewing clonogenic cells according to established protocols (Glas et al., 2010; Scheffler et al., 2005). Neurospheres were quantified at 21 days in culture, triturated to a single cell suspension, and re-plated for analysis of the secondary and tertiary neurospheres. […]

[3] = system: CD133+ vs. CD133− pGBM cells; assay: CD133+ vs CD133- pGBM cells, metabolic activity and cell confluency; format: cell-based, human; conditions: IMC50, 5 days after single exposure
From the text: FIG. 19: Preferred targeting of CD133^+ GBM cells by Gambogig acid amide. (A) FACS-based identification and sorting of CD133^+ subpopulations from pGBMs (#106, top; #058, bottom). Note the respective frequency of CD133^+ cells is indicated within the panel). (B) Relative metabolic activity and cell confluency of CD133-positive vs. CD133-negative pGBM cells determined at 5 days after single exposure of Gambogic acid (IMC50, top) and Gambogic acid amide (IMC50, bottom). Note the selective sensitivity of CD133^+ cells in response to application of Gambogic acid amide.
To further corroborate the cancer stem cell-specific inhibitory activity of GAA, we selected CD133-positive and -negative cell populations from pGBMs (FIG. 19). CD133^+ cells are known among glioblastoma samples to represent a minority of tumorigenic stem-like phenotypes (Singh et al., 2004). Comparative evaluation of the inhibitory effects induced by GAA and GA on CD133^+ vs. CD133^− pGBM cells confirmed our assumption.
For fluorescence-activated cell separation (FACS), cells were stained with CD133/2-PE or with CD133/2-APC (both 1:20; Miltenyi Biotech) and sorted on a BD FACS DiVa Cell Sorter (Becton Dickinson).

[4] = system: pGBMs (#046); assay: Orthotopic xenotransplantation of pre-treated pGBMs; format: in vivo, Rag2Il2rg−/− mice; conditions: pGBMs pre-treated 5 days at IMC50, 10^6 cells into striatum, vs DMSO
Method: FIG. 18: Gambogig acid amide decreases the tumor-initiating potential of pGBMs. pGBMs (#046) were treated with IMC50 concentrations of the respective compounds for 5 days in vitro. […] surviving vital cells were subsequently collected and injected into the striatum of adult immunocompromised mice (n=5 for each experiment). (A) Kaplan-Meier curves show no significant survival advantage upon injection of pGBMs pre-treated with gambogic acid (dotted) vs. DMSO controls (solid).
Cells were harvested, counted and re-suspended in 0.1% DNase/PBS. Cellular viability was confirmed via trypan blue exclusion. 10^6 DMSO-control-, gambogic acid or gambogic acid amide-pretreated pGBMs were injected stereotactically into the striatum of 12 week old Rag2Il2rg^−/− mice (0.8 mm anterior, 2 mm lateral, 3 mm deep). Mice were monitored daily and euthanized upon presentation with signs of distress/neurological symptoms or significant weight loss. For subsequent histological analysis, brains were removed, cryoprotected, and serially cut on a cryostat (Leica) at 20 μm thickness. Every fifth section underwent routine H&E staining for histological analysis of tumor formation.

[5] = system: four patient-specific primary GBM cultures; assay: cells; conditions: Homo sapiens, read-out: cellular viability of pGBMs, control levels
Method: (§2) Before screening, cell number was titrated for each cell line separately to ensure that cell proliferation remained in a linear-exponential phase throughout the experiment. 24 hours after seeding 2−3×10^3 cells/well into laminin/poly-L-ornithine coated 96-well plates, primary cultures were treated with 2 nM, 1 μM or 10 μM of each compound (stock solution 10 mM in DMSO). As a reference we treated cells with 50 μM and 500 μM temozolomide (TMZ, SigmaAldrich, Taufkirchen, Germany; stock solution of 100 mM in DMSO). Control cells were treated with 0.5-0.01% DMSO. Six days after application, cell viability was determined using the AlamarBlue® assay according to the manufacturers recommendations (Invitrogen, Karlsruhe, Germany). Fluorescence was measured using an Infinite200 microplate reader (Tecan, Crailsheim, Germany) at Xex=540 nm and Xem=590 nm. Experiments were performed in triplicates for each sample.
(§3) To identify cytotoxic and cytostatic compounds, we conducted in vitro drug-screening assays in four different patient-specific primary GBM cultures (see Table 1 for basic characterization of research specimens).
(§4) The compound library was screened at three different concentrations (10 μM, 1 μM, 2 nM). The relative metabolic activity was determined after a 5-day incubation with compounds. […] For reference, we applied 50 μM (reported plasma peak concentration) and 500 μM of temozolomide (TMZ, as described in Beier et al., 2008), the current standard chemotherapeutic GBM drug to our cells. […] However, “hits” in the setting of a primary screening were defined as a reduction of the relative metabolic activity under the level of 50% of DMSO-treated control cells.

[6] = system: four patient-specific primary GBM cultures; conditions: 1 μM
Method: as §2, §3, §4

[7] = system: LN229, T98G, U87, U138, and U373 cells; assay: Pharmacodynamic analysis in commercial glioma/GBM cell lines; format: cell-based; conditions: compared with pGBM IMC50's
Method: as §1
For pharmacodynamic analysis, 5×10^4 cells were plated in 12-well-plates at 24 hours before application of compound-series. AlamarBlue®-based analysis was conducted at 5 days post treatment. Experiments were performed in triplicates. IMC50 was defined as the compound concentration that reduced the metabolic activity by 50% compared to control conditions and determined via data analysis in GraphPad Prism 4.0.

`CC(C)=CCC[C@]1(C)C=Cc2c(O)c3c(c(CC=C(C)C)c2O1)O[C@]12C(=C[C@@H]4C[C@H]1C(C)(C)O[C@@]2(C/C=C(/C)C(=O)O)C4=O)C3=O` [GA, Gambogic acid] was tested. Which “inhibition of the metabolic activity of pGBMs” value [1] did it give?
The value was “effectively and to a comparable degree”.

What about the “frequency of self-renewing, multipotent cells (primary, secondary, tertiary spheres)” value [2] of the same molecule?
Its value is “no GA-induced alteration”.

What about the “selective reduction of cell growth and viability among CD133+ vs CD133− cells” value [3] of the same molecule?
The value was “could not be revealed”.

What about the “survival of animals that received pre-treated pGBMs” value [4] of the same molecule?
The value was “not evident”.

And the viability at 1 µM [5]?
Its viability at 1 µM is < 50%.

`CC(C)=CCC[C@]1(C)C=Cc2c(O)c3c(c(CC=C(C)C)c2O1)O[C@]12C(=C[C@@H]4CC1C(C)(C)O[C@@]2(C/C=C(/C)C(N)=O)C4=O)C3=O` [GAA, Gambogic acid amide] was tested. Which “cellular viability of pGBMs, control levels” value [6] did it give?
Its value is “below 50%”.

What about the “inhibition of the metabolic activity of pGBMs” value [1] of the same molecule?
Its value is “effectively and to a comparable degree”.

And the “time of induction of inhibitory activity” value ([1]; day 1, 2 or 5 following exposure, versus Gambogic acid)?
Its value is “earlier time point”.

And the IC50 ([1]; pGBM #106, day 5)?
Its IC50 is 514 nM.

And the IC50 ([1]; pGBM #132, day 5)?
The IC50 was 78 nM.

And the “inhibitory activity compared with GA (dose-response)” value ([1]; triplicate analysis for each sample)?
The value was “consistently at lower concentrations”.

What about the “inhibitory activity in commercial glioma/GBM cell lines” value [7] of the same molecule?
The value was “Comparable results”.

And the “frequency of self-renewing, multipotent cells (primary, secondary, tertiary spheres)” value [2]?
Its value is “considerably reduced frequency”.

And the “selective reduction of cell growth and viability among CD133+ vs CD133− cells” value [3]?
The value was “significantly stronger reduction”.

And the “survival of animals that received pre-treated pGBMs” value [4]?
The value was “significantly increased survival”.

Reference: patent US9573960B2, “Glioblastoma inhibiting compounds and their use” (Life & Brain GmbH, priority 2011, dated 2017)
